Columns and labels:
[1] = Compound induced cellular toxicity in HepG2 cells, ATPlite 1Step; type: cell-based; details: human, three days exposure, 50% reduction of total ATP vs no drug controls
Description: At day 3, post seeding cells are treated with ATPlite 1Step according to the manufacturer's instructions.

HBV in 2.2.15 cells = assay: 2.2.15 cells: viral product in cell lysates quantified via quantitative real time PCR; type: cell-based, hepatitis B virus (HBV); details: Hepatitis B virus, 120 h, day 5 post treatment, 50% reduction of viral product vs no drug controls, readout (qPCR, HBsAg or HBeAg) not specified for the column
In short: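 HBV product was measured at day 5 by lysate qPCR or by supernatant HBsAg/HBeAg ELISA, in 2.2.15 cells seeded at 35,000/well and exposed to 5-fold compound dilution series (0.5% DMSO). EC50 is 50% reduction of viral product relative to untreated controls.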

SMILES | CC50 at 3 days [1] [nM] | EC50 (HBV in 2.2.15 cells) [nM]
CC(C)(C)[C@@H]1Cn2ncc(-c3cccs3)c2-c2cc(=O)c(C(=O)O)cn21 [Example 109, (R)-6-(tert-butyl)-10-oxo-1-(thiophen-2-yl)-5,6-dihydro-10H-pyrazolo[1,5-a]pyrido[2,1-c]pyrazine-9-carboxylic acid] | > 25000 | < 100
CC(C)(C)[C@@H]1Cn2nc(-c3cccc4nonc34)cc2-c2cc(=O)c(C(=O)O)cn21 [Example 58, (R)-2-(benzo[c][1,2,5]oxadiazol-4-yl)-6-(tert-butyl)-10-oxo-5,6-dihydro-10H-pyrazolo[1,5-a]pyrido[2,2-c]pyrazine-12-carboxylic acid] | > 25000 | < 100
Cc1ccc(-c2c(C3CC3)nn3c2-c2cc(=O)c(C(=O)O)cn2[C@H](C(C)(C)C)C3)cc1 [Example 154, (R)-6-(tert-butyl)-2-cyclopropyl-10-oxo-1-(p-tolyl)-5,6-dihydro-10H-pyrazolo[1,5-a]pyrido[2,1-c]pyrazine-9-carboxylic acid] | > 25000 | < 100
CC(C)(C)[C@@H]1Cn2nc(-c3ccoc3)cc2-c2cc(=O)c(C(=O)O)cn21 [Example 4, (R)-6-(tert-butyl)-2-(furan-3-yl)-10-oxo-5,6-dihydro-10H-pyrazolo[1,5-a]pyrido[2,2-c]pyrazine-12-carboxylic acid] | > 25000 | 200 to 1000
COc1ccc(-c2nn3c(c2-c2ccc(OC)cc2)-c2cc(=O)c(C(=O)O)cn2[C@H](C(C)(C)C)C3)cc1 [Example 98, (R)-6-(tert-butyl)-1,2-bis(4-methoxyphenyl)-10-oxo-5,6-dihydro-10H-pyrazolo[1,5-a]pyrido[2,1-c]pyrazine-9-carboxylic acid] | > 25000 | < 100
CC(C)(C)[C@@H]1Cn2nc(-c3cccc(F)c3)c(-c3cccc(F)c3)c2-c2cc(=O)c(C(=O)O)cn21 [Example 94, (R)-6-(tert-butyl)-1,2-bis(3-fluorophenyl)-10-oxo-5,6-dihydro-10H-pyrazolo[1,5-a]pyrido[2,1-c]pyrazine-9-carboxylic acid] | > 25000 | < 100
CCOc1ccc(OC)cc1-c1cc2n(n1)C[C@@H](C(C)(C)C)n1cc(C(=O)O)c(=O)cc1-2 [Example 37, (R)-6-(tert-butyl)-2-(2-ethoxy-5-methoxyphenyl)-10-oxo-5,6-dihydro-10H-pyrazolo[1,5-a]pyrido[2,2-c]pyrazine-12-carboxylic acid] | > 25000 | < 100
CC(C)(C)[C@@H]1Cn2nc(C3CC3)c(-c3cnsc3)c2-c2cc(=O)c(C(=O)O)cn21 [Example 162, (R)-6-(tert-butyl)-2-cyclopropyl-1-(isothiazol-4-yl)-10-oxo-5,6-dihydro-10H-pyrazolo[1,5-a]pyrido[2,1-c]pyrazine-9-carboxylic acid] | > 25000 | < 100
COc1ccc(OC(F)(F)F)c(-c2cc3n(n2)C[C@@H](C(C)(C)C)n2cc(C(=O)O)c(=O)cc2-3)c1 [Example 34, (R)-6-(tert-butyl)-2-(5-methoxy-2-(trifluoromethoxy)phenyl)-10-oxo-5,6-dihydro-10H-pyrazolo[1,5-a]pyrido[2,2-c]pyrazine-12-carboxylic acid] | > 25000 | < 100
CC(C)[C@@H]1Cn2nc(C3CC3)c(-c3ccco3)c2-c2cc(=O)c(C(=O)O)cn21 [Example 136, (R)-2-cyclopropyl-1-(furan-2-yl)-6-isopropyl-10-oxo-5,6-dihydro-10H-pyrazolo[1,5-a]pyrido[2,1-c]pyrazine-9-carboxylic acid] | > 25000 | < 100
CC(C)(C)[C@@H]1Cn2nc(-c3ccc(OC(F)(F)F)cc3)cc2-c2cc(=O)c(C(=O)O)cn21 [Example 25, (R)-6-(tert-butyl)-10-oxo-2-(4-(trifluoromethoxy)phenyl)-5,6-dihydro-10H-pyrazolo[1,5-a]pyrido[2,2-c]pyrazine-12-carboxylic acid] | > 25000 | 200 to 1000
CC(C)(C)[C@@H]1Cn2ncc(-c3ccccc3F)c2-c2cc(=O)c(C(=O)O)cn21 [Example 104, (R)-6-(tert-butyl)-1-(2-fluorophenyl)-10-oxo-5,6-dihydro-10H-pyrazolo[1,5-a]pyrido[2,1-c]pyrazine-9-carboxylic acid] | 10000 to 25000 | < 100
CC(C)(C)[C@@H]1Cn2ncc(-c3ccc(F)cc3F)c2-c2cc(=O)c(C(=O)O)cn21 [Example 100, (R)-6-(tert-butyl)-1-(2,4-difluorophenyl)-10-oxo-5,6-dihydro-10H-pyrazolo[1,5-a]pyrido[2,1-c]pyrazine-9-carboxylic acid] | > 25000 | < 100
CC(C)(C)[C@@H]1Cn2nc(C3CC3)c(-c3ccccc3)c2-c2cc(=O)c(-c3ncn[nH]3)cn21 [Example 195, (R)-6-(tert-butyl)-2-cyclopropyl-1-phenyl-9-(1H-1,2,4-triazol-5-yl)-5,6-dihydro-10H-pyrazolo[1,5-a]pyrido[2,1-c]pyrazin-10-one] | > 25000 | < 100
CC(C)(C)[C@@H]1Cn2nc(C3CC3)c(-c3cccc(F)c3)c2-c2cc(=O)c(-c3ncn[nH]3)cn21 [Example 197, (R)-6-(tert-butyl)-2-cyclopropyl-1-(3-fluorophenyl)-9-(1H-1,2,4-triazol-5-yl)-5,6-dihydro-10H-pyrazolo[1,5-a]pyrido[2,1-c]pyrazin-10-one] | > 25000 | < 100
CC(C)(C)[C@@H]1Cn2nc(-c3ccccc3C(F)F)cc2-c2cc(=O)c(C(=O)O)cn21 [Example 85] | > 25000 | 200 to 1000
CC(C)[C@@H]1Cn2nc(C3CC3)c(-c3ccc(F)cc3)c2-c2cc(=O)c(C(=O)O)cn21 [Example 133, (R)-2-cyclopropyl-1-(4-fluorophenyl)-6-isopropyl-10-oxo-5,6-dihydro-10H-pyrazolo[1,5-a]pyrido[2,1-c]pyrazine-9-carboxylic acid] | > 25000 | < 100
CC(C)(C)[C@@H]1Cn2nc(-c3cc(F)ccc3F)cc2-c2cc(=O)c(C(=O)O)cn21 [Example 61, (R)-6-(tert-butyl)-2-(2,5-difluorophenyl)-10-oxo-5,6-dihydro-10H-pyrazolo[1,5-a]pyrido[2,2-c]pyrazine-12-carboxylic acid] | > 25000 | < 100
CC(C)(C)[C@@H]1Cn2nc(C3CC3)c(-c3ccco3)c2-c2cc(=O)c(C(=O)O)cn21 [Example 159, (R)-6-(tert-butyl)-2-cyclopropyl-1-(furan-2-yl)-10-oxo-5,6-dihydro-10H-pyrazolo[1,5-a]pyrido[2,1-c]pyrazine-9-carboxylic acid] | > 25000 | < 100
CC(C)(C)[C@@H]1Cn2nc(-c3ccccc3F)cc2-c2cc(=O)c(C(=O)O)cn21 [Example 3, (R)-6-(tert-butyl)-2-(2-fluorophenyl)-10-oxo-5,6-dihydro-10H-pyrazolo[1,5-a]pyrido[2,2-c]pyrazine-12-carboxylic acid] | > 25000 | < 100
CC(C)(C)[C@@H]1Cn2ncc(-c3ccc4c(c3F)OCO4)c2-c2cc(=O)c(C(=O)O)cn21 [Example 122, (R)-6-(tert-butyl)-1-(4-fluorobenzo[d][1,3]dioxol-5-yl)-10-oxo-5,6-dihydro-10H-pyrazolo[1,5-a]pyrido[2,1-c]pyrazine-9-carboxylic acid] | > 25000 | < 100
CC(C)(C)[C@@H]1Cn2nc(-c3ccccc3OC(F)(F)F)cc2-c2cc(=O)c(C(=O)O)cn21 [Example 24, (R)-6-(tert-butyl)-10-oxo-2-(2-(trifluoromethoxy)phenyl)-5,6-dihydro-10H-pyrazolo[1,5-a]pyrido[2,2-c]pyrazine-12-carboxylic acid] | > 25000 | < 100
COc1cccc(F)c1-c1cc2n(n1)C[C@@H](C(C)(C)C)n1cc(C(=O)O)c(=O)cc1-2 [Example 50, (R)-6-(tert-butyl)-2-(2-fluoro-6-methoxyphenyl)-10-oxo-5,6-dihydro-10H-pyrazolo[1,5-a]pyrido[2,2-c]pyrazine-12-carboxylic acid] | > 25000 | 200 to 1000
C[C@@H]1Cn2nc(-c3ccccc3F)c(-c3ccccc3F)c2-c2cc(=O)c(C(=O)O)cn21 [Example 206, (R)-1,2-bis(2-fluorophenyl)-6-methyl-10-oxo-5,6-dihydro-10H-pyrazolo[1,5-a]pyrido[2,1-c]pyrazine-9-carboxylic acid] | 10000 to 25000 | < 100
CC(C)(C)[C@@H]1Cn2ncc(-c3ccc(F)cc3)c2-c2cc(=O)c(C(=O)O)cn21 [Example 101, (R)-6-(tert-butyl)-1-(4-fluorophenyl)-10-oxo-5,6-dihydro-10H-pyrazolo[1,5-a]pyrido[2,1-c]pyrazine-9-carboxylic acid] | > 25000 | < 100
CC(C)(C)[C@@H]1Cn2nc(-c3ccccc3O)cc2-c2cc(=O)c(C(=O)O)cn21 [Example 46, (R)-6-(tert-butyl)-2-(2-hydroxyphenyl)-10-oxo-5,6-dihydro-10H-pyrazolo[1,5-a]pyrido[2,2-c]pyrazine-12-carboxylic acid] | > 25000 | < 100
CC(C)(C)[C@@H]1Cn2nc(-c3c(F)cccc3Cl)cc2-c2cc(=O)c(C(=O)O)cn21 [Example 65, (R)-6-(tert-butyl)-2-(2-chloro-6-fluorophenyl)-10-oxo-5,6-dihydro-10H-pyrazolo[1,5-a]pyrido[2,2-c]pyrazine-12-carboxylic acid] | > 25000 | < 100
COc1ccc(O)c(-c2cc3n(n2)C[C@@H](C(C)(C)C)n2cc(C(=O)O)c(=O)cc2-3)c1 [Example 56, (R)-6-(tert-butyl)-2-(2-hydroxy-5-methoxyphenyl)-10-oxo-5,6-dihydro-10H-pyrazolo[1,5-a]pyrido[2,2-c]pyrazine-12-carboxylic acid] | > 25000 | < 100
